Test results reported in publication PMC5301048, “Selection and early clinical evaluation of the brain‐penetrant 11β‐hydroxysteroid dehydrogenase type 1 (11β‐HSD1) inhibitor UE2343 (Xanamem™)” (British Journal of Pharmacology, 2017).
Converted amounts (≈) assume the structure as drawn. Where two headings read alike, the source gives them in different places.

What was measured:
human 11β‐HSD1 = target: T1, human 11β‐HSD1 (Homo sapiens, UniProt P28845); assay: Inhibition of human 11β-HSD1 in stably transfected HEK293 cells; type: cell-based; details: HEK293 cells; mean ± SD [n]; read-out: Human 11β‐HSD1 IC50 in HEK293 cells
T1 construct: a construct containing the full‐length gene coding for the human 11β‐HSD1 enzyme; expressed in transfected cells; host or cells: HEK293
Procedure: Inhibition of human 11β‐HSD1 was determined in HEK293 cells stably transfected with a construct containing the full‐length gene coding for the human 11β‐HSD1 enzyme according to the protocol described by Sooy et al., 2010.

[1] = Tissue exposure measurements in rats (plasma and brain); type: in vivo; details: rat; for Brain Cmax / Plasma Cmax / Cmax: mean ± SD; for Kp / Cmax: male, Sprague Dawley; for Cmax: plasma
Procedure: The circulating plasma levels and tissue distribution of compounds were determined according to the method described in WO2011135276 (Webster et al., 2011a). Animals were group‐housed, had free access to food and water and were maintained in accordance with UK Home Office regulations. The animal work was conducted under UK Home Office Project Licence no. PPL 60/3915.
Compounds were prepared in 0.9% saline containing 2% DMSO (v^.v^‐1) and 38% PEG400 (v^.v^‐1) and administered to male Sprague Dawley rats by oral gavage such that the final concentration of compound was 10 mg·kg^−1. Rats (n = 3 per time point) were killed by decapitation at 1, 4 and 6 h post dosing, and trunk blood and tissues (liver, adipose and brain) were excised. Blood samples at 0.5 and 2 h post dosing were taken by a tail nick from the 4 and 6 h rats respectively.
Compounds were triple extracted from plasma (prepared from blood by a high speed centrifugation step) and spiked with 1 μg of a standard compound using ethyl acetate. Extracts were dried under nitrogen and re‐suspended in 60% methanol/40% ammonium acetate (5 mM).
A known weight of tissue was homogenized in 3 volumes of Krebs buffer. The compound was triple extracted with ethyl acetate from the supernatant of a low speed spin spiked with […] of a standard compound. Extracts were dried under nitrogen and re‐suspended in 60% methanol/40% ammonium acetate (5 mM).
Samples from plasma and tissue were analysed by TSQ Quantum Discovery Tandem Mass Spectrometer and Surveyor Liquid Chromatogram (Thermo, Hemel‐Hempstead, UK). Then 10 μL of each sample was injected in a mobile phase consisting of 60% methanol/40% ammonium acetate (5 mM) at a flow rate of 0.5 mL·min^−1. The column used was a BDS hypersil C18, 50 × 2.1 mm with a 5 μm particle size.
Each compound was tuned with a spray voltage of 3000 V and a capillary temperature of 300°C, and values for tube lens, CID and product ions were determined. The peak area for each compound and for the internal standard was determined, and the concentration of compound ^. g^‐1 of tissue or mL^‐1 of plasma was calculated by comparison of the peak area ratio to a standard curve.

[2] = Plasma protein binding, human plasma; type: in vitro ADME; details: for Plasma protein binding (% unbound), human: mean ± SD [n]
Procedure: Plasma protein binding was determined using pooled human plasma according to the method described in WO2011135276 (Webster et al., 2011a).

in vivo = details: male, Sprague Dawley, rat
Procedure: Pharmacokinetic studies were carried out at Quotient Bioresearch, UK. For both i.v. and p.o. administration, compounds were prepared in 0.9% saline containing 2% DMSO (v^.v^‐1) and 38% PEG400 (v^.v^‐1). Solutions were passed through 0.22 μm filters prior to administration. Animals were given ad libitum access to food and water throughout the study. For i.v. administration three male Sprague Dawley rats each received 1 mg·kg^−1 of compound by tail vein injection (dose volume 5 mL·kg^−1). Serial blood samples were taken from a lateral tail vein 5, 15, 30 min, 1, 2, 4, 6 and 8 h post i.v. administration, and stored in individual EDTA containers. Blood samples were flash frozen in liquid nitrogen and stored at −20°C prior to analysis. For p.o. administration, five male Sprague Dawley rats were dosed with compound at 5 mg·kg^−1 (dose volume 10 mL·kg^−1). Serial blood samples were taken from a lateral tail vein 15, 30 min, 1, 2, 4, 6 and 8 h post p.o. administration, and stored in individual EDTA containers. Blood samples were flash frozen in liquid nitrogen and stored at −20°C prior to analysis. Blood samples were thawed at ambient temperature and vortex mixed thoroughly. A representative aliquot of each blood sample was diluted 1:1 v^.v^‐1 with HPLC grade water prior to protein precipitation with acetonitrile containing diazepam internal standard (blood/water: acetonitrile ratio was 1:4 v^ v^‐1). Following vortex mixing and centrifugation (4°C, 15 min, 17 000 x g) a 100 μL aliquot of supernatant was diluted by addition of 50 μL HPLC grade water in a well of a 96‐well midi‐eppendorf plate. The plate was sealed and shaken on a plate shaker to ensure sample homogeneity. Samples were assayed against a series of matrix matched calibration curve standards by LC–MS/MS using a Sciex 3000 mass spectrometer. Pharmacokinetic parameters were derived by non‐compartmental analysis using WinNonLin pharmacokinetic software.

[3] = Aqueous solubility at pH 7.4; type: physicochemical; details: thermodynamic from solid, pH 7.4, room temperature, mean ± SD [n]
Procedure: The concentration was quantified by HPLC with reference to a standard calibration curve. The solubility was calculated using the peak areas determined by integration of the peak found at the same retention time as the principal peak in the standard injection.

hERG K+ channel = target: T2, hERG K+ channel (Homo sapiens, UniProt Q12809); assay: hERG inhibition, IonWorks Quattro patch clamp; type: cell-based; details: Chinese hamster lung cells expressing hERG; mean ± SD [n]
T2 construct: Chinese hamster lung cell line stably expressing the full length hERG channel; host or cells: Chinese hamster lung cell line
Procedure: Testing was performed by Essen Instruments, Hertfordshire, UK. Compounds were tested for inhibition of the human ether a go‐go related gene (hERG) K+ channel in a Chinese hamster lung cell line stably expressing the full length hERG channel. Single cell ionic currents were measured in the perforated patch clamp configuration at room temperature using an IonWorks Quattro instrument. Eight‐point concentration–response curves were generated using threefold serial dilutions from the maximum final assay concentration. IC50 values were obtained from a four‐parameter logistic fit of the % inhibition data.

[4] = Microsomal stability, rat liver microsomes; type: in vitro ADME; details: mean ± SD [n]
Procedure: (§1) Microsomal stability was determined using pooled human, rat or dog liver microsomes according to the method described in WO2011135276 (Webster et al., 2011a).

[5] = Plasma protein binding, rat plasma; type: in vitro ADME; details: mean ± SD [n]
[6] = Microsomal stability, human liver microsomes; type: in vitro ADME; details: mean ± SD [n]
Procedure: as §1

[7] = Plasma protein binding, dog plasma; type: in vitro ADME; details: mean ± SD [n]
[8] = Microsomal stability, dog liver microsomes; type: in vitro ADME; details: mean ± SD [n]
Procedure: as §1

[9] = Pharmacokinetics in dog (i.v. and p.o.); type: in vivo; details: Beagle, plasma
Procedure: Pharmacokinetic studies were carried out at Charles River, UK. For both i.v. and p.o. administration, compounds were prepared in 0.9% saline containing 2% DMSO (v^.v^‐1) and 38% PEG400 (v^.v^‐1). Solutions were passed through 0.22 μm filters prior to administration. Three Beagle dogs each received a single i.v. injection of compound 4 at a dose level of 1 mg·kg^−1. Following a washout period of 1 week, each animal received a single p.o. dose of compound 4 at a dose level of 5 mg·kg^−1.
After a washout period of 6 weeks, the same three dogs each received a single i.v. injection of compound 7 at a dose level of 1 mg·kg^−1. Following a washout period of 1 week, each animal received a single p.o. dose of compound 7 at a dose level of 5 mg·kg^−1.
Plasma samples were obtained up to 24 h post dose administration, and the concentration of each test item in plasma was determined using LC–MS/MS. Pharmacokinetic parameters were derived by non‐compartmental analysis using WinNonLin pharmacokinetic software.

[10] = brain and plasma, po, 10 mg/kg, 10 mg·kg^−1 oral gavage, read-out: Brain : plasma ratio
[11] = po, 10 mg/kg, 10 mg·kg^−1 oral gavage

T1 sequence (P28845 whole entry): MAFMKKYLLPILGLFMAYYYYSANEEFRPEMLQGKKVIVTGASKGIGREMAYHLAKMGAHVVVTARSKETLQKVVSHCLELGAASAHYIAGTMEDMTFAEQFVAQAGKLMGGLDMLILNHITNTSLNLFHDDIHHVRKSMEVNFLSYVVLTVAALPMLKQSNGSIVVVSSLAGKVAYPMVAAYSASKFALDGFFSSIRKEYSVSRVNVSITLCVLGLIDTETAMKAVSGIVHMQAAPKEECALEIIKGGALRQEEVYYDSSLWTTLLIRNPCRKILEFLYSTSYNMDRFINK
T2 sequence (Q12809 whole entry): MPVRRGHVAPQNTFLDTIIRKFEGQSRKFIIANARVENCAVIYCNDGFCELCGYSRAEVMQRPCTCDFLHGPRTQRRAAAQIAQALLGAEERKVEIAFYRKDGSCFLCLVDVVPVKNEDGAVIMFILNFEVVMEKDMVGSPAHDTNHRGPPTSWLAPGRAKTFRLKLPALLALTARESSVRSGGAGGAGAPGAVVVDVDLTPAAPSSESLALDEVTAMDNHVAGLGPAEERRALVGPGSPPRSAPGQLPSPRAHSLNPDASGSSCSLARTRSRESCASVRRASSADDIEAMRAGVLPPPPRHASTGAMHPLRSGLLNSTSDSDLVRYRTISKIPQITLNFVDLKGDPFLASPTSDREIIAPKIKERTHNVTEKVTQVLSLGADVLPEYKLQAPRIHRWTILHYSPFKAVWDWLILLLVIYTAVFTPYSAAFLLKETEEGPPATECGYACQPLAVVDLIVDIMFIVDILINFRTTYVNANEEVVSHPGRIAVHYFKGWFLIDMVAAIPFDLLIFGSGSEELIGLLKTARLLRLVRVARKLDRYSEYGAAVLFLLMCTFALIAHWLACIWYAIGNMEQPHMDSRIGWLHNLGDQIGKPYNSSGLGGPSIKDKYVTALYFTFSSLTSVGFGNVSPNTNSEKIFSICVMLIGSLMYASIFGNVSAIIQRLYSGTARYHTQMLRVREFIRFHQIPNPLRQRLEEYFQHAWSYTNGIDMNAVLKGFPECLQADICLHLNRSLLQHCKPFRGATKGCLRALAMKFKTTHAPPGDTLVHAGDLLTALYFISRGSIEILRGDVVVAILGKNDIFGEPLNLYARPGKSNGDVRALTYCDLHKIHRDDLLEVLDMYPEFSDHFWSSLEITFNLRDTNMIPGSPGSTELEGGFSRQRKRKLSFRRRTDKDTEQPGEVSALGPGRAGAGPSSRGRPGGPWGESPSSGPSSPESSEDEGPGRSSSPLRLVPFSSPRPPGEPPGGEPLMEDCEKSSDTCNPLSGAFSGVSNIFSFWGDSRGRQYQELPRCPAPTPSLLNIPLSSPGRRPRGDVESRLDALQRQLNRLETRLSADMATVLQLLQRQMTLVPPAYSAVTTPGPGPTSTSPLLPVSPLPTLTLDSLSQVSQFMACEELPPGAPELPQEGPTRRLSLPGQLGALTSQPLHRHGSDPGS

| Compound | IC50 (human 11β‐HSD1) [nM] | Brain Cmax ([1]; 10 mg·kg^−1 oral gavage) [ng/mL] | Kp [1, 10] | Cmax [1, 11] [ng/mL] | also measured |
| --- | --- | --- | --- | --- | --- |
| O=C(c1csc(-c2cn[nH]c2)c1)N1C2CCC1CC(F)(c1ccccn1)C2 (stereo not shown) [compound 6] | 22 ± 10 | 108 ± 54 | – | – | Brain : plasma ratio ([1]; 10 mg·kg^−1 oral gavage): 0.27; Plasma Cmax ([1]; 10 mg·kg^−1 oral gavage): 399 ± 99 ng/mL |
| O=C(c1csc(-c2cn[nH]c2)c1)N1C2CCC1CC(O)(c1ccccc1)C2 (stereo not shown) [compound 1] | 22 ± 2 | 29 ± 10 | 0.07 | 419 ± 28 | Plasma protein binding (% unbound), human [2]: 10±0 % unbound; bioavailability (in vivo): 23%; half-life (in vivo): 0.9 ± 0.1 h; clearance (in vivo; iv, 1 mg/kg): 34 ± 22 mL/min/kg; solubility ([3]; aqueous buffer): 6 µg/mL (≈ 15.8 µM) |
| O=C(c1csc(-c2cn[nH]c2)c1)N1C2CCC1CC(F)(c1ccccn1)C2 (stereo not shown) [compound 7] | 7 ± 4 | 374 ± 184 | 0.24 | – | IC50 (hERG K+ channel): 3100 ± 600 nM; Plasma protein binding (% unbound), human [2]: 11 ± 2 [2] % unbound; free fraction in plasma relative to the 3‐endo isomer (compound 6) ([2]; species not stated, in words): twofold greater; Liver microsomal stability (% parent at 30 min), rat [4]: 45 ± 5 [3] % parent at 30 min; Plasma protein binding (% unbound), rat [5]: 10 ± 1 [2] % unbound; solubility ([3]; aqueous phosphate buffer): 6 µg/mL (≈ 15.7 µM); Kp ([1]; brain (relative to free plasma), oral, 10 mg·kg^−1, rat, rat plasma protein binding taken into account, read-out: brain : plasma free ratio): 2.45; Plasma Cmax ([1]; 10 mg·kg^−1 oral gavage): 1526 ± 212 ng/mL; Liver microsomal stability (% parent at 30 min), human [6]: 51 ± 3 [3] % parent at 30 min; Plasma protein binding (% unbound), dog [7]: 11 ± 0 [1] % unbound; Liver microsomal stability (% parent at 30 min), dog [8]: 74 ± 1 [3] % parent at 30 min; clearance ([9]; iv, i.v. 1 mg·kg^−1, mean ± SD): 8.68 ± 2.03 mL/min/kg; half-life ([9]; mean ± SD): 3.21 ± 1.61 h; Cmax ([9]; po, p.o. 5 mg·kg^−1, mean ± SD): 3100 ± 908 ng/mL; AUC ([9]; po, p.o. 5 mg·kg^−1, mean ± SD, read-out: Oral AUC(0➔∞)): 9210 ± 2000 ng·h/mL; bioavailability ([9]; po, p.o. 5 mg·kg^−1 vs i.v. 1 mg·kg^−1, mean ± SD): 90 ± 40% |
| O=C(c1csc(-c2cn[nH]c2)c1)N1C2CCC1CC(O)(c1cnccn1)C2 (stereo not shown) [compound 5] | 37 ± 3 | 19 ± 17 | 0.03 | 589 ± 161 | – |
| O=C(c1csc(-c2cn[nH]c2)c1)N1C2CCC1CC(O)(c1ncccc1Cl)C2 (stereo not shown) [compound 3] | 12 | 36 ± 12 | 0.31 | 115 ± 48 | – |
| N#CC1(c2ccccn2)CC2CCC(C1)N2C(=O)c1csc(-c2cn[nH]c2)c1 (stereo not shown) [compound 8] | 15 | 9 ± 3 | 0.03 | 291 ± 74 | – |
| O=C(c1csc(-c2cn[nH]c2)c1)N1C2CCC1CC(O)(c1ccccn1)C2 (stereo not shown) [compound 2] | 26 ± 8 | 31 ± 12 | 0.02 | 1270 ± 330 | – |
| N#CC1(c2ncccn2)CC2CCC(C1)N2C(=O)c1csc(-c2cn[nH]c2)c1 (stereo not shown) [compound 9] | 13 ± 3 | 15 ± 1 | 0.07 | 230 ± 33 | – |
